These results are taken from patent US20030026766A1 (priority 2000, published 2003).

The experiment concerns the target T1, glucocorticoid receptor (Homo sapiens, UniProt P04150).
T1 sequence (P04150 1-777): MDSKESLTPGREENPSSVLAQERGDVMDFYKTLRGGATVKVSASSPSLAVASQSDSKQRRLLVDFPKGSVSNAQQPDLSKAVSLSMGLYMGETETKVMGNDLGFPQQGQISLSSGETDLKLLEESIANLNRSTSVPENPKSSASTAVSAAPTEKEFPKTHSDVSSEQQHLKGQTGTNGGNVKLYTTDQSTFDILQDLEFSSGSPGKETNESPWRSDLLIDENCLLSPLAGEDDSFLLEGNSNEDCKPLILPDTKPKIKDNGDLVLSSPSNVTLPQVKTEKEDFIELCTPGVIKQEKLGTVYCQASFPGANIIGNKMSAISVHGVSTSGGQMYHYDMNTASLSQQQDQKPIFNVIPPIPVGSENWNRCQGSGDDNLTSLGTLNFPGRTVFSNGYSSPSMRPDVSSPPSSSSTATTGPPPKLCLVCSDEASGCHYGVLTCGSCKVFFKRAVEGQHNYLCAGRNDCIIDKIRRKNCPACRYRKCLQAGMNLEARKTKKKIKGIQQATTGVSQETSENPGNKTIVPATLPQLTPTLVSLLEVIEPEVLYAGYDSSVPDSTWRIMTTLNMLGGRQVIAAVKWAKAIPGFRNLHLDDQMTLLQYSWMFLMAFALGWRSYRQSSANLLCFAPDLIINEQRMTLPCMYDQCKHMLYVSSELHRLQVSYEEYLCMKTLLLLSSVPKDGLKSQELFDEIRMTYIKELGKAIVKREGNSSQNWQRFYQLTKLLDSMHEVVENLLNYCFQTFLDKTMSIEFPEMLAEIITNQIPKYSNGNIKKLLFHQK
In words: Western Blot analysis of glucocorticoid receptor translocation into the nucleus in U937 cells. Conditions: nuclear extract, GR band at approximately 94 kDa by densitometry, control = 100, proportional to increase in GR translocation into the nucleus. On the technique in general: A western blot detects proteins with antibodies after separation by electrophoresis.

As to `OCc1cc(C(O)CNCCCCCCOCCCCc2ccccc2)ccc1O` (stereo not shown) [Salmeterol], the “% Change in Band Density” value came to 183 ± 12%.
